These results are taken from US10688082B2, “Aminopyrazine compounds with A2A antagonist properties” (Merck Sharp & Dohme Corp., priority 2015, dated 2020).

SMILES strings stand for the structures. pKi: −log10 of the molar value.

For one experiment, the target named is T1, human A2a receptor (Homo sapiens, UniProt P29274).
T1 construct: purchased Perkin-Elmer RBHA2AM400UA; host or cells: HEK293 cells (membranes)
T1 sequence (P29274 whole entry): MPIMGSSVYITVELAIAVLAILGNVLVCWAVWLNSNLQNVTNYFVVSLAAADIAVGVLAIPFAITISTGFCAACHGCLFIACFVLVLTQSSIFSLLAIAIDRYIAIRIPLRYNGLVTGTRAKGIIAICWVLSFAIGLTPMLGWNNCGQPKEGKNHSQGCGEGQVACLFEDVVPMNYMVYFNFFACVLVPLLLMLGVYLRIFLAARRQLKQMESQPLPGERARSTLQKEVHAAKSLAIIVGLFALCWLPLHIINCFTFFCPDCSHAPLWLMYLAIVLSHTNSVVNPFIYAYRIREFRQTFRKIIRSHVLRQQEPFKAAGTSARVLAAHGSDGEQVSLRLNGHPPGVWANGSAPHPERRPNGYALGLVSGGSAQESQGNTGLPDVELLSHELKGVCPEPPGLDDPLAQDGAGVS
In words: Competition binding assay using Scintillation Proximity technology (A2a activity). The settings on record: membranes from HEK293 cells expressing the human A2a receptor; 0.5 nM tritiated ligand; Cheng-Prusoff. The procedure: Binding affinities of compounds of the invention for the human A2a receptor were determined in a competition binding assay using Scintillation Proximity technology. Thus, […] from HEK293 cells expressing the human A2a receptor were incubated with a compound of the invention at concentrations ranging from 3000 nM to 0.15 nM in a reaction mixture containing also 0.5 nM of a tritiated form of 5-amino-7-[2-phenethyl]-2-(furan-2-yl)-7H-pyrazolo[4,3-e][1,2,4]triazolo[1,5-c]pyrimidine (the tritiated compound) and 100 μg of wheat germ agglutin-coated yttrium silicate SPA beads for one hour at room temperature with agitation. The beads were then allowed to settle to the bottom of the wells for 1 hr, after which the membrane-associated radioactivity was determined by scintillation counting in a TopCount microplate reader. Ki values were determined using the Cheng-Prusoff equation.
HEK293 cells expressing the human, rat, dog or monkey adenosine 2a receptor (Purchased from Perkin-Elmer # RBHA2AM400UA).
The Tritiated compound was prepared according to published methods.
Wheat germ agglutinin-coated yttrium silicate SPA beads (GE Healthcare # RPNQ0023). Dilute to 25 mg/ml in assay buffer.
Assay Buffer was prepared using Dulbecco's calcium and magnesium free phosphate buffered saline+10 mM MgCl2
Adenosine deaminase from calf intestine, 10 mg/2 ml (Roche #10 102 105 001).
A2a antagonist standard (9-chloro-1-(2-furanyl)-[1,2,4]triazolo1,5-c]quinazolin-5-amine from Tocris Bioscience)
Make eight 1:3 serial dilutions in 100% DMSO from a 3 mM compound stock
Transfer 50 nl of compound into a 384-well OptiPlate (Perkin Elmer).
Typically, final concentrations of compound used in the assay ranged from 3000 nM to 0.152 nM.
Dilute a solution of the Tritiated compound to 1.25 nM in assay buffer. This is a 2.5× solution. The final concentration in the assay is 0.5 nM. Calculate the concentration by counting two 5 μl aliquots.
Use 0.25 ug of membrane/well. Dilute membranes to 9.7 μg/ml in assay buffer. Treat with 20 ug/ml adenosine deaminase (ADA) for 15 minutes at room temperature to degrade endogenous adenosine.
Use 100 μg/well wheat germ agglutinin-coated yttrium silicate SPA beads.
Mix ADA-treated membranes and SPA beads together for 30 min prior to assay.
To the Perkin-Elmer Optiplate-384 containing the compound titration add 20 μl of 2.5× solution of the Tritiated compound and 30 μl of the membrane-bead mixture. Incubate for one hour at room temperature with agitation.
Include total binding (assay buffer+1% DMSO) and non-specific binding (CGS15943, 1 μM) wells.
Allow the beads to settle for one hour.
A curve fitting program (i.e., Prism, Activity Base, Chemcart) is used to determine the EC50. The Ki value is calculated using the Cheng-Prusoff equation. K i=EC50/(1+(radioligand concentration/Kd))
Molecule `COc1cccc2c1nc(N)n1nc(-c3cnco3)cc21` [Ex-2, 7-methoxy-2-(oxazol-5-yl)pyrazolo[1,5-c]quinazolin-5-amine] showed a pKi of 7.70.

`COCCOc1ccc(N2CCN(CCOc3cccc4c3nc(N)n3nc(-c5ccco5)cc43)CC2)cc1` [Ex-3, 2-(furan-2-yl)-7-(2-(4-(4-(2-methoxyethoxy)phenyl)piperazin-1-yl)ethoxy)pyrazolo[1,5-c]quinazolin-5-amine] had a pKi of 6.17.

As to `COc1cccc2c1nc(N)n1nc(Cc3ccc(F)cc3)cc21` [Ex-5, 2-(4-fluorobenzyl)-7-methoxypyrazolo[1,5-c]quinazolin-5-amine], the negative logarithm of the Ki (pKi) is 7.92.

With `COc1cccc2c1nc(N)n1nc(Cc3ccc(F)cc3F)cc21` [Ex-6, 2-(2,4-difluorobenzyl)-7-methoxypyrazolo[1,5-c]quinazolin-5-amine], the pKi was 8.00. The pKi values of the last two molecules are within 0.2 log units of each other.

On to `COc1cccc2c1nc(N)n1nc(Cc3cccc4ccccc34)cc21` [Ex-7, 7-methoxy-2-(naphthalen-1-ylmethyl)pyrazolo[1,5-c]quinazolin-5-amine], for which the pKi is 7.80.

With `COc1cccc2c1nc(N)n1nc(Cc3ccc(N4CCCCC4)cc3)cc21` [Ex-8, 7-methoxy-2-(4-(piperidin-1-yl)benzyl)pyrazolo[1,5-c]quinazolin-5-amine], the pKi is 6.87.

`COc1cccc2c1nc(N)n1nc(Cc3cccc4cccnc34)cc21` [Ex-9, 7-methoxy-2-(quinolin-8-ylmethyl)pyrazolo[1,5-c]quinazolin-5-amine] had a pKi of 8.52.

`COc1cccc2c1nc(N)n1nc(Cc3cncnc3)cc21` [Ex-10, 7-methoxy-2-(pyrimidin-5-ylmethyl)pyrazolo[1,5-c]quinazolin-5-amine] gave a pKi of 7.44.

`COc1cccc2c1nc(N)n1nc(Cc3ccc(N(C)C)cc3)cc21` [Ex-11, 2-(4-(dimethylamino)benzyl)-7-methoxypyrazolo[1,5-c]quinazolin-5-amine] had a pKi of 7.21.

In turn, `COc1cccc2c1nc(N)n1nc(Cc3ccc(N4CCN(C)CC4)cc3)cc21` [Ex-12, 7-methoxy-2-(4-(4-methylpiperazin-1-yl)benzyl)pyrazolo[1,5-c]quinazolin-5-amine] gave a pKi of 6.50.

Turning to `COc1cccc2c1nc(N)n1nc(Cc3csc(N4CCN(C)CC4)n3)cc21` [Ex-13, 7-methoxy-2-((2-(4-methylpiperazin-1-yl)thiazol-4-yl)methyl)pyrazolo[1,5-c]quinazolin-5-amine], the pKi is 6.43. This pKi and that of the molecule before are within 0.2 log units of each other.

As to `COc1cccc2c1nc(N)n1nc(Cc3ccnc4ccccc34)cc21` [Ex-14, 7-methoxy-2-(quinolin-4-ylmethyl)pyrazolo[1,5-c]quinazolin-5-amine], the pKi was 8.70. Against the preceding molecule, the pKi is 2.27 log units higher.

`COc1cccc2c1nc(N)n1nc(Cc3cccc4ncccc34)cc21` [Ex-15, 7-methoxy-2-(quinolin-5-ylmethyl)pyrazolo[1,5-c]quinazolin-5-amine] had a pKi of 7.07.

As for `COc1cccc2c1nc(N)n1nc(Cc3ccc4[nH]ncc4c3)cc21` [Ex-16, 2-((1H-indazol-5-yl)methyl)-7-methoxypyrazolo[1,5-c]quinazolin-5-amine], the pKi was 6.88. The pKi values of the last two molecules are within 0.2 log units of each other.

With `COc1cccc2c1nc(N)n1nc(Cc3ccccc3C(F)(F)F)cc21` [Ex-17, 7-methoxy-2-(2-(trifluoromethyl)benzyl)pyrazolo[1,5-c]quinazolin-5-amine], the pKi is 7.77.

In turn, `COc1cccc2c1nc(N)n1nc(Cc3ccccc3N3CCOCC3)cc21` [Ex-18, 7-methoxy-2-(2-morpholinobenzyl)pyrazolo[1,5-c]quinazolin-5-amine] had a pKi of 8.52.

Turning to `COc1cccc2c1nc(N)n1nc(Cc3ccccc3N3CCNCC3)cc21` [Ex-19, 7-methoxy-2-(2-(piperazin-1-yl)benzyl)pyrazolo[1,5-c]quinazolin-5-amine], the pKi is 7.17.

For `COc1cccc2c1nc(N)n1nc(Cc3cccnc3N3CCOCC3)cc21` [Ex-20, 7-methoxy-2-((2-morpholinopyridin-3-yl)methyl)pyrazolo[1,5-c]quinazolin-5-amine], the pKi is 7.82.

Regarding `COc1cccc2c1nc(N)n1nc(Cc3ccccc3CN3CCOCC3)cc21` [Ex-21, 7-methoxy-2-(2-(morpholinomethyl)benzyl)pyrazolo[1,5-c]quinazolin-5-amine], the negative-log Ki (pKi) was 7.29.

Molecule `COc1cccc2c1nc(N)n1nc(Cc3ccc(N4CCOCC4)cc3)cc21` [Ex-22, 7-methoxy-2-(4-morpholinobenzyl)pyrazolo[1,5-c]quinazolin-5-amine] gave a pKi of 6.89.

As to `COc1cccc2c1nc(N)n1nc(Cc3cccc(N4CCOCC4)c3)cc21` [Ex-23, 7-methoxy-2-(3-morpholinobenzyl)pyrazolo[1,5-c]quinazolin-5-amine], the negative logarithm of the Ki (pKi) was 7.59.

With `COc1cccc2c1nc(N)n1nc(Cc3ccc(N4CCN(C(=O)OC(C)(C)C)CC4)cc3)cc21` [Ex-24, tert-butyl 4-(4-((5-amino-7-methoxypyrazolo[1,5-c]quinazolin-2-yl)methyl)phenyl)piperazine-1-carboxylate], the negative-log Ki (pKi) is 6.65.

Molecule `COc1cccc2c1nc(N)n1nc(Cc3ccc(N4CCNCC4)cc3)cc21` [Ex-25, 7-methoxy-2-(4-(piperazin-1-yl)benzyl)pyrazolo[1,5-c]quinazolin-5-amine] had a pKi of 6.48.

Take `CCN1CCN(c2ccccc2Cc2cc3c4cccc(OC)c4nc(N)n3n2)CC1` [Ex-26, 2-(2-(4-ethylpiperazin-1-yl)benzyl)-7-methoxypyrazolo[1,5-c]quinazolin-5-amine]: the pKi was 6.92.

For `COc1cccc2c1nc(N)n1nc(Cc3ccccc3CN3CCC(C)(O)CC3)cc21` [Ex-27, 1-(2-((5-amino-7-methoxypyrazolo[1,5-c]quinazolin-2-yl)methyl)benzyl)-4-methylpiperidin-4-ol], the pKi was 7.74.

In turn, `COc1cccc2c1nc(N)n1nc(Cc3ccccc3CN3CC(O)C3)cc21` [Ex-28, 1-(2-((5-amino-7-methoxypyrazolo[1,5-c]quinazolin-2-yl)methyl)benzyl)azetidin-3-ol] showed a negative-log Ki (pKi) of 8.05. This pKi is 0.31 log units higher than that of the molecule before.

Consider `COc1cccc2c1nc(N)n1nc(Cc3ccccc3CN3CCCC3)cc21` [Ex-29, 7-methoxy-2-(2-(pyrrolidin-1-ylmethyl)benzyl)pyrazolo[1,5-c]quinazolin-5-amine], for which the pKi was 7.77.

The molecule `COc1cccc2c1nc(N)n1nc(Cc3ccccc3F)cc21` [Ex-30, 2-(2-fluorobenzyl)-7-methoxypyrazolo[1,5-c]quinazolin-5-amine] showed a pKi of 9.00.

As to `COc1cccc2c1nc(N)n1nc(Cc3cccc(F)c3)cc21` [Ex-31, 2-(3-fluorobenzyl)-7-methoxypyrazolo[1,5-c]quinazolin-5-amine], the pKi was 8.70.

Molecule `COc1ccccc1Cc1cc2c3cccc(OC)c3nc(N)n2n1` [Ex-32, 7-methoxy-2-(2-methoxybenzyl)pyrazolo[1,5-c]quinazolin-5-amine] gave a pKi of 9.00.

In turn, `COc1ccc(Cc2cc3c4cccc(OC)c4nc(N)n3n2)cc1` [Ex-33, 7-methoxy-2-(4-methoxybenzyl)pyrazolo[1,5-c]quinazolin-5-amine] gave a pKi of 7.49.

`COc1cccc(Cc2cc3c4cccc(OC)c4nc(N)n3n2)c1` [Ex-34, 7-methoxy-2-(3-methoxybenzyl)pyrazolo[1,5-c]quinazolin-5-amine] gave a negative-log Ki (pKi) of 8.15.

The same experiment, now with this note: same protocol.
For the molecule `COc1cccc2c1nc(N)n1nc(Cc3ccccc3)cc21` [Ex-4, 2-benzyl-7-methoxypyrazolo[1,5-c]quinazolin-5-amine], the pKi was 8.05.
